Tested on: IL-8 secretion induced by LPS in peripheral blood neutrophils
Assay: Inhibition of IL-8 secretion induced by LPS in isolated peripheral blood neutrophils (ELISA)
Format: cell-based
Conditions: Homo sapiens, Neutrophil; for inhibition at 10 pM: single agent 0.01 nM
Description: 5 Healthy subjects were included for leukocyte experiments. Pulmonary function tests (forced spirometry) and arterial blood gas measurements were performed during the days prior to sample.
Neutrophils were isolated from peripheral blood of healthy volunteers according to standard procedures established in the laboratory (Milara J et al., Respiration 2012; 83, 147-158).
Isolated neutrophils were incubated with different drugs (MABA compound, mometasone or fluticasone) or vehicle for 30 minutes before incubation with LPS (1 mcg/mL) (Lipopolysaccharide, a representative stimulus as inflammatory mediator) for 6 hours in standard cell culture conditions (37° C. and 5% CO2). Supernatant were collected to measure IL-8 (the inflammatory marker).
IL-8 (Interleukin-8) was determined by ELISA according to the standard procedure.
Data was presented as mean±SEM. Statistical analysis of results was carried out by analysis of variance (ANOVA) followed by Bonferroni test, by Student's t test, or by non-parametric tests as appropriate (GraphPad Software Inc, San Diego, Calif., USA). Significance was accepted when P<0.05.

[1] = 30 min pre-incubation, LPS 1 mcg/mL 6 h, neutrophils from healthy subjects (5 volunteers in triplicate), Table 1

SMILES | inhibition at 10 pM [1] [%] | inhibition at 10 pM (IL-8 secretion induced by LPS 1 mcg/mL 6 h, neutrophils from healthy subjects, Table 2) [%] | inhibition at 0.0001 µM (single agent 0.1 nM, IL-8 secretion induced by LPS 1 mcg/mL 6 h, neutrophils from healthy subjects, Table 2) [%]
COc1cc(NC(=O)OCCN(C)[C@H]2CC[C@H](OC(=O)C(O)(c3cccs3)c3cccs3)CC2)c(Cl)cc1CNC[C@H](O)c1ccc(O)c2[nH]c(=O)ccc12 [Cpd 1, trans-4-[{2-[({[2-chloro-4-({[(2R)-2-hydroxy-2-(8-hydroxy-2-oxo-1,2-dihydroquinolin-5-yl)ethyl]amino}methyl)-5-methoxyphenyl]amino}carbonyl)oxy]ethyl}-(methyl)amino]cyclohexyl hydroxy(di-2-thienyl)acetate] | 5.6 | 5.6 | –
C[C@@H]1C[C@H]2[C@@H]3C[C@H](F)C4=CC(=O)C=C[C@]4(C)[C@@]3(F)[C@@H](O)C[C@]2(C)[C@@]1(O)C(=O)SCF [Fluticasone, fluticasone] | – | – | 10.2
C[C@@H]1C[C@H]2[C@@H]3CCC4=CC(=O)C=C[C@]4(C)[C@@]3(Cl)[C@@H](O)C[C@]2(C)[C@@]1(O)C(=O)CCl [Mometasone, mometasone] | 2.85 | – | –
